# Laboratory results reported in PMC11492828 (RSC Advances, 2024).
# Where two headings read alike, the source gives them in different places.
# What was measured:
# [1] = test system: human neuroblastoma (SH-SY5Y) cells; assay: Cytotoxicity/cell viability MTT assay; type: cell-based; conditions: for Nature in cytotoxicity study: MTT
# [2] = test system: TNF-α; assay: Flow cytometric analysis of TNF-α expression in Aβ-induced SH-SY5Y cells; type: cell-based, human
# [3] = test system: IL-1β; assay: Flow cytometric analysis of IL-1β expression in Aβ-induced SH-SY5Y cells; type: cell-based, human
# [4] = test system: IL-6; assay: Flow cytometric analysis of IL-6 expression in Aβ-induced SH-SY5Y cells; type: cell-based, human
# [5] = test system: ROS; assay: Flow cytometric analysis of ROS in Aβ-induced SH-SY5Y cells; type: cell-based, human
# [6] = molecular target: T1, PPAR-γ (Homo sapiens, UniProt P37231); assay: PPAR-γ transactivation assay; type: cell-based; conditions: SH-SY5Y cells, 1–16 μM
# T1 sequence (P37231 1-505): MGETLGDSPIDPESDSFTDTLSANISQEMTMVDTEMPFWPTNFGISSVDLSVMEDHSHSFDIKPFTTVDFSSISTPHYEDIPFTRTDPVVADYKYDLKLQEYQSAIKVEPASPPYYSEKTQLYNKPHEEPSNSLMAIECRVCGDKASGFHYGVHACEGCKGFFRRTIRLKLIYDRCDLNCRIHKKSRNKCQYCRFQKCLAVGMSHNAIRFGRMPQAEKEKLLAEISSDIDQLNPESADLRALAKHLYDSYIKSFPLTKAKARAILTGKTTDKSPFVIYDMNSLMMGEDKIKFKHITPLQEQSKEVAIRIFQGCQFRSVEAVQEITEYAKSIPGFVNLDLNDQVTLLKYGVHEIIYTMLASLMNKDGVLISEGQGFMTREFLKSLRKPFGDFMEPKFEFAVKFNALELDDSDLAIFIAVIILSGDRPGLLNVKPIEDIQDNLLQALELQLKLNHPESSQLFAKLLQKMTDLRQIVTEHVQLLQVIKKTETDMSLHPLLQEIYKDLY
# [7] = test system: Aβ-induced SH-SY5Y cell line; assay: Anti-inflammatory and anti-oxidant activity in the Aβ-induced SH-SY5Y cell line; type: cell-based, human; conditions: 2.5 to 40 μM, vs pioglitazone
# [8] = Homo sapiens, SH-SY5Y, read-out: IC50 MTT assay, SH-SY5Y cells
# [9] = read-out: IC50 MTT assay, SH-SY5Y cells
smiles,measurement,setting,value
"CC(/C=C/c1ccc(OCC(=O)Nc2ccccc2)cc1)=N\O [Compound 4i, 2-(4-((1E,3E)-3-(Hydroxyimino)but-1-en-1-yl)phenoxy)-N-phenylacetamide]",IC50,[1]; [8],82.3 µM
same,Nature in cytotoxicity study,[1]; SH-SY5Y cells,cytotoxic
"COc1cc(/C=C/C(C)=N/O)ccc1OCC(=O)Nc1ccc(C)cc1 [Compound 4b, 2-(4-((1E,3E)-3-(Hydroxyimino)but-1-en-1-yl)-2-methoxyphenoxy)-N-(p-tolyl)acetamide]",IC50,[1]; [8],112 µM
same,Nature in cytotoxicity study,[1]; SH-SY5Y cells,cell proliferative and non-cytotoxic
"CC(/C=C/c1ccc(OCC(=O)Nc2ccccc2F)cc1)=N\O [Compound 4f, N-(2-Fluorophenyl)-2-(4-((1E,3E)-3-(hydroxyimino)but-1-en-1-yl)phenoxy)acetamide]",IC50,[1]; [8],66.7 µM
same,Nature in cytotoxicity study,[1]; SH-SY5Y cells,cytotoxic
"CCc1ccc(CCOc2ccc(CC3SC(=O)NC3=O)cc2)nc1 (stereo not shown) [Pioglitazone, pioglitazone]",TNF-α% cell expression,[2]; Aβ 10 μM + 2.5 μM compound,67.8%
same,TNF-α% cell expression,[2]; Aβ 10 μM + 5 μM compound,53.92%
same,TNF-α% cell expression,[2]; Aβ 10 μM + 10 μM compound,24.85%
same,TNF-α% cell expression,[2]; Aβ 10 μM + 20 μM compound,9.8%
same,TNF-α% cell expression,[2]; Aβ 10 μM + 40 μM compound,5.5%
same,IL-1β% cell expression,[3]; Aβ 10 μM + 2.5 μM compound,70.21%
same,IL-1β% cell expression,[3]; Aβ 10 μM + 5 μM compound,52.38%
same,IL-1β% cell expression,[3]; Aβ 10 μM + 10 μM compound,32.36%
same,IL-1β% cell expression,[3]; Aβ 10 μM + 20 μM compound,15.15%
same,IL-1β% cell expression,[3]; Aβ 10 μM + 40 μM compound,10.76%
same,IL-6% cell expression,[4]; Aβ 10 μM + 2.5 μM compound,42.95%
same,IL-6% cell expression,[4]; Aβ 10 μM + 5 μM compound,30.23%
same,IL-6% cell expression,[4]; Aβ 10 μM + 10 μM compound,15.09%
same,IL-6% cell expression,[4]; Aβ 10 μM + 20 μM compound,9.51%
same,IL-6% cell expression,[4]; Aβ 10 μM + 40 μM compound,12.31%
same,ROS% cell expression,[5]; Aβ 10 μM + 2.5 μM compound,60.98%
same,ROS% cell expression,[5]; Aβ 10 μM + 5 μM compound,53.96%
same,ROS% cell expression,[5]; Aβ 10 μM + 10 μM compound,41.78%
same,ROS% cell expression,[5]; Aβ 10 μM + 20 μM compound,21.01%
same,ROS% cell expression,[5]; Aβ 10 μM + 40 μM compound,9.07%
"COc1cc(/C=C/C(C)=N/O)ccc1OCC(=O)Nc1ccc(Cl)cc1 [Compound 4a, N-(4-Chlorophenyl)-2-(4-((1E,3E)-3-(hydroxyimino)but-1-en-1-yl)-2methoxyphenoxy)acetamide]",IC50,[1]; [8],108 µM
same,Nature in cytotoxicity study,[1]; SH-SY5Y cells,cell proliferative and non-cytotoxic
same,IC50,[1]; [9],> 100 µM
same,PPAR-γ transcriptional activity,[6],dose-dependent enhancement
same,Anti-inflammatory and anti-oxidant activity (expression of pro-inflammatory cytokines and ROS),[7],promising anti-inflammatory activity and anti-oxidant activity
"COc1cc(/C=C/C(C)=N/O)ccc1OCC(=O)Nc1ccccc1 [Compound 4c, 2-(4-((1E,3E)-3-(Hydroxyimino)but-1-en-1-yl)-2-methoxyphenoxy)-N-phenylacetamide]",IC50,[1]; [8],50.7 µM
same,Nature in cytotoxicity study,[1]; SH-SY5Y cells,cytotoxic
"COc1cc(/C=C/C(C)=N/O)ccc1OCC(=O)Nc1ccccc1C [Compound 4e, 2-(4-((1E,3E)-3-(Hydroxyimino)but-1-en-1-yl)-2-methoxyphenoxy)-N-(o-tolyl)acetamide]",IC50,[1]; [8],79.7 µM
same,Nature in cytotoxicity study,[1]; SH-SY5Y cells,cytotoxic
"COc1cc(/C=C/C(C)=N/O)ccc1OCC(=O)Nc1cccc(C)c1 [Compound 4h, 2-(4-((1E,3E)-3-(Hydroxyimino)but-1-en-1-yl)-2-methoxyphenoxy)-N-(m-tolyl)acetamide]",IC50,[1]; [8],150 µM
same,Nature in cytotoxicity study,[1]; SH-SY5Y cells,cell proliferative and non-cytotoxic
same,IC50,[1]; [9],> 100 µM
same,PPAR-γ transcriptional activity,[6],dose-dependent enhancement
same,Anti-inflammatory and anti-oxidant activity (expression of pro-inflammatory cytokines and ROS),[7],promising anti-inflammatory activity and anti-oxidant activity
